Test system: NIH3T3 cells
Assay: Macroautophagic flux (LC3-II flux with/without lysosomal protease inhibitors)
Type: cell-based, mouse
Details: 20 μM, 16 h
Procedure: FIG. 10. Characterization of the brain permeable chemical activator of CMA and effect in a mouse model of Frontotemporal dementia-related proteotoxicity. (A) Chemical structure of AR7 and CA77.1. (B) Quantification of the effect of adding increasing concentrations of AR7 and CA77.1 to NIH3T3 cells stably expressing the KFERQ-PS-Dendra reporter. CMA activity was quantified after 16 h treatment as the average of fluorescent puncta per cell. (n>800 cells per condition). (C) Autophagic flux in NIH3T3 cells incubated at 37° C. for 16 h with 20 µM AR7 or CA77.1 or without additions (none). Where indicated lysosomal protease inhibitors (PI) were added to the cells 6 h before lysis. Left: representative immunoblot. […] Right: quantification of LC3-II flux as the difference in LC3-II levels in cells treated with PI relative to untreated. […] (D) Quantification of the effect of adding increasing concentrations of AR7 and CA77.1 to NIH3T3 cells stably expressing the KFERQ-PS-Dendra reporter. CMA activity was quantified after 12 h or 24 h treatment as the average of fluorescent puncta per cell. […] Representative immunoblot of 4-5 mice per genotype and treatment (L) and densitometric quantification of AT8 as monomer [Kruskal-Wallis statistic=20.48, p<0.0001] […] (O, P) Quantification of the number of Iba1-positive microglial cells per mm^2 in the hippocampus [Kruskal-Wallis statistic=10.55, p=0.0051] […]

## CC(=O)Nc1ccc(-c2cnc3cc(Cl)ccc3n2)cc1 [CA77.1]
  effect on macroautophagy (LC3-II flux): without affecting macroautophagy

From US20240189307A1, “METHODS OF STABILIZING THE NEURONAL PROTEOME AGAINST COLLAPSE AND PROTECTING VASCULAR CELLS” (ALBERT EINSTEIN COLLEGE OF MEDICINE, priority 2021, published 2024)
